From patent US9085549B2, “Compounds for the treatment of neurodegenerative diseases” (ProteoTech Inc., priority 2011, dated 2015)
Like-named read-outs stand apart in the source and are kept apart here.

Tests used:
α-synuclein fibrils [1] = molecular target: T1, α-synuclein fibrils (Homo sapiens (Human), UniProt P37840); test: Thioflavin T fluorometry: disruption/disaggregation of pre-formed α-synuclein fibrils; format: biochemical; conditions: for Emax: 48 h, read-out: Max % Decrease
Method: The biological activity of the compounds provided herein as disruptors/inhibitors of Parkinson's disease α-synuclein fibrils was assessed by determining the efficacy of the compounds to cause a disassembly/disruption of pre-formed Parkinson's disease α-synuclein fibrils. In one study, Thioflavin T fluorometry was used to determine the effects of the compounds, and […]).
In one study, Thioflavin T fluorometry was used to determine the effects of the compounds on α-synuclein fibrils. In addition to test compounds, this experiment included a positive control compound and a negative control compound for reference.
For each compound, the % inhibition of Thioflavin T fluorescence (i.e. the decrease compared to control reactions containing α-synuclein alone) was plotted against the log of the concentration of the test compound (expressed as mole ratio relative to α-synuclein).

[2] = test system: BE-M17 human neuroblastoma cells stably transfected with A53T-mutant human α-synuclein; test: Thioflavin S staining of rotenone-induced α-synuclein aggregates in cells; format: cell-based; conditions: for inhibition at 0.5 µM / inhibition at 2 µM / inhibition at 1 µM / inhibition at 5 µM: Homo sapiens, Neuroblastoma cell, read-out: Efficacy % Inhibition
α-synuclein = α-synuclein (Homo sapiens (Human), UniProt P37840); test: Circular dichroism spectroscopy: inhibition of α-synuclein β-sheet formation; format: biochemical; conditions: read-out: Max % Inhibition
Method: For this purpose, α-synuclein was obtained from rPeptide as a lyophilized salt in 1 mg aliquots. Buffer components and other solvents were obtained from Sigma as A.C.S. Reagent grade or higher. […] After 24 hours, reactions were diluted 20-fold in PBS and CD spectra for each reaction were acquired on a Jasco J-810 spectropolarimeter using a 0.1 cm path length cell. All spectra were recorded with a step size of 0.1 nm, a bandwidth of 1 nm, and an α-synuclein concentration of 0.05 mg/ml. The spectra were trimmed at the shortest wavelength that still provided a dynode voltage less than 600V. The trimmed spectra were then subjected to a data processing routine beginning with noise reduction by Fourier transform followed by subtraction of a blank spectrum (vehicle only without α-synuclein). These blank corrected spectra were then zeroed at 260 nm and the units converted from millidegrees to specific ellipticity.
These percent β-sheet values were then used to provide the respective relative % inhibition of β-sheet induced by the compounds at given molar ratio of test compound:α-synuclein.

α-synuclein fibrils [3] = molecular target: T1, α-synuclein fibrils; test: biochemical; conditions: 48 h, read-out: Max % Decrease
[4] = molecular target: human TauRD (Q244-E372 of Tau441) (Homo sapiens (Human), UniProt P10636); test: Thioflavin S fluorometry: inhibition of tau protein fibril formation; format: biochemical; conditions: for IC50: read-out: ThioS (IC50)
Method: Methods Mol Biol, 2005. 299: p. 35-51]. […] (with shaking at 800-1000 rpm for day).
The Thio S fluorometry assay as a primary screening method to identify tau protein aggregation inhibitors from our small molecule library. Aggregated tau fibrils were prepared in the presence of equimolar ratios of TauRD and heparin (10 μM each) in 20 mM Na-phosphate buffer, pH7.4. The reaction mixture was incubated at 37° C. with shaking (800-1000 rpm) for 22-24 hr (or for 3 days). In the Thio S inhibition assays, test compounds at 0, 0.1, 1, 10 and 100 μM were added at time 0 into the reaction containing TauRD and heparin. The same reaction mixture (+/− increasing concentrations of compounds) but without TauRD were also set up in parallel to serve as background controls. For all test compounds background fluorescence readings were very low, usually <5% of those of the TauRD-containing wells. For each compound, the IC50 was calculated using Prism version 5 software (GraphPad Software) by nonlinear regression [(Log [inhibitor] vs. normalized response; variable slope)]. […] The Thio S screening results are summarized in Table 7 (in which the reactions were incubated for 22 hours).

TauRD = TauRD (Homo sapiens (Human), UniProt P10636); test: Circular dichroism spectroscopy: tau protein β-sheet formation
Method: CD spectroscopy was also performed to determine each compound's potency in inhibiting β-sheet secondary structure in TauRD under aggregation-prone conditions. The CD spectroscopy and Thio S assays were typically analyzed in parallel from the same sample preparation in order to correlate the results from two independent assays. CD spectra were taken from the samples containing +/− TauRD with increasing concentrations of compounds, and collected at 25° C. on a JASCO Model J-810 Spectropolarimeter. […] Since CD spectra reflect a total population of secondary structures (including random coil, β-sheet, and various intermediate conformers) of TauRD proteins under a given condition, the CD scores were established based on (1) the CD spectra derived from TauRD mixtures with different ratios of random coil/β-sheet; (2) time-dependent conformational changes of TauRD.

α-synuclein fibrils [5] = molecular target: T1, α-synuclein fibrils
[6] = test system: A53T α-synuclein-expressing BE-M17 cells; test: XTT assay: rotenone-induced cell death; format: cell-based, human
[7] = Thioflavin T fluorescence, 2-day incubation
[8] = rotenone 0.5 μM, compound 0.5 μM
[9] = inhibition of β-sheet formation, 24 hours
[10] = Homo sapiens, read-out: Max % Inhibition
[11] = TauRD and heparin 10 μM each, incubated for 22 hours
[12] = Homo sapiens; read-out: Max % Inhibition
[13] = Homo sapiens, read-out: % inhibition of cell death

human TauRD (Q244-E372 of Tau441), sequence (P10636 561-689): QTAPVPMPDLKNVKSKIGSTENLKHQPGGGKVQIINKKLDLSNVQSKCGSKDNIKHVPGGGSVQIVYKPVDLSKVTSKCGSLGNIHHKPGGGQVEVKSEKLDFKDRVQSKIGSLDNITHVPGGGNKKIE
TauRD, sequence (P10636 561-689): as above

Oc1ccc(-c2nc3cc(O)c(O)cc3o2)cc1O [SA-54]
Emax (α-synuclein fibrils [1]; [7]): 98%
inhibition at 0.5 µM [2, 8]: 80%
inhibition at 2 µM ([2]; rotenone 0.5 μM, compound 2 μM): 83%
inhibition at 1 µM ([2]; rotenone 2 μM, compound 1 μM): 56%
Emax (α-synuclein; [9]): 100%
Emax (α-synuclein fibrils [3]): 57%

Oc1ccc(-c2nnc(-c3cc(O)c(O)cc3Br)o2)cc1O [SA-55]
ThioS (IC50, μM) [4]: no inhibition
CD (TauRD): −

Oc1ccc(-c2nsc(-c3ccc(O)c(O)c3)n2)cc1O [SA-57]
Emax (α-synuclein fibrils [1]; [7]): 100%
% inhibition of Thioflavin T fluorescence (α-synuclein fibrils [1]; test compound:α-synuclein molar ratio of 1:1): 83%
% inhibition of Thioflavin T fluorescence (α-synuclein fibrils [1]; test compound:α-synuclein molar ratios ≧5:1): 97-100%
Emax (α-synuclein; [9]): 100%
% inhibition of Congo red binding (α-synuclein fibrils [5]; test compound:α-synuclein molar ratio of 5:1): 49%
% inhibition of Congo red binding (α-synuclein fibrils [5]; test compound:α-synuclein molar ratio of 50:1): 66%
Emax (α-synuclein fibrils [3]): 66%

Oc1ccc(-c2cc(Br)c(-c3ccc(O)c(O)c3)s2)cc1O [SA-59]
Efficacy % Inhibition [2]: 67%
inhibition at 1 µM [2]: 69%
inhibition at 2 µM [2]: 76%
inhibition at 5 µM [2]: 56%
IC50 ([6]; Homo sapiens): 3.1 µM
Emax [6, 10]: 63%

COc1ccc(-c2cc(-c3ccc(OC)c(OC)c3)c(-c3ccc(OC)c(OC)c3)s2)cc1OC [SA-60, 2,3,5-tri(3′,4′-dimethoxyphenyl)thiophene]
inhibition of rotenone-induced cell death (in words) [6]: significant, dose-dependent inhibition
IC50 ([6]; Homo sapiens): 12.5 µM
Emax [6, 10]: 33%
ThioS (IC50, μM) [4, 11]: no inhibition

Oc1ccc(-c2ccc(Br)s2)cc1O [SA-62]
ThioS (IC50, μM) [4, 11]: no inhibition

Oc1ccc(-c2ccc(-c3cc(O)c(O)c(O)c3)s2)cc1O [SA-63, 5-(5-(3,4-dihydroxyphenyl)thiophen-2-yl)benzene-1,2,3-triol]
IC50 [4, 11]: 10.1 ± 0.56 µM
CD (TauRD; semi-quantitative CD score, aggregated TauRD): +

Oc1ccc(-c2cnc(-c3ccc(O)c(O)c3)s2)cc1O [SA-64]
Emax (α-synuclein fibrils [1]; [7]): 100%
IC50 ([6]; Homo sapiens; read-out: IC50): 2.6 µM
Emax [6, 12]: 100%
Emax (α-synuclein; [9]): 100%
IC50 [4, 11]: 17.6 µM
Emax (α-synuclein fibrils [3]): 85%

Oc1ccc(-c2nnc(-c3ccc(O)c(O)c3)o2)cc1O [SA-67]
Emax (α-synuclein fibrils [1]; [7]): 76%
inhibition at 0.5 µM [2, 8]: 75%
inhibition at 1 µM ([2]; rotenone 0.5 μM, compound 1 μM): 48%
inhibition at 2 µM ([2]; rotenone 0.5 μM, compound 2 μM): 92%
IC50 ([6]; Homo sapiens; read-out: IC50): 8.5 µM
Emax [6, 12]: 44%
Emax (α-synuclein; [9]): 100%
Emax (α-synuclein fibrils [3]): 25%

Oc1ccc(-c2cn(-c3ccc(O)c(O)c3)nn2)cc1O [SA-68]
Emax (α-synuclein fibrils [1]): 100%
inhibition at 1 µM ([2]; rotenone 0.5 μM, compound 1 μM): 69%
inhibition at 5 µM ([2]; rotenone 0.5 μM, compound 5 μM): 73%
inhibition at 5 µM ([2]; rotenone 2 μM, compound 5 μM): 44%
IC50 ([6]; Homo sapiens; read-out: IC50): 24 µM
Emax [6, 12]: 61%
Emax (α-synuclein; 24 h): 100%

Oc1ccc(-c2cnc(-c3ccc(O)c(O)c3)o2)cc1O [SA-70]
Emax (α-synuclein fibrils [1]): 100%
IC50 ([6]; Homo sapiens): 5.6 µM
Emax [6, 10]: 78%
Emax (α-synuclein; 24 h): 92%
Emax (α-synuclein fibrils [3]): 88%

Oc1ccc(-c2cnco2)cc1O [SA-73]
Max % Decrease (α-synuclein fibrils [1]; [7]): 100%
EC50 (mole ratio) (α-synuclein fibrils [1]; Thioflavin T fluorescence, moles of test compound per mole of α-synuclein, 6.9 μM pre-formed fibrils, 2 days): 0.52 mole ratio
disruption/disassembly of preformed α-synuclein fibrils (in words) (α-synuclein fibrils [1]; molar ratios 50:1 to 0.01:1): dose-dependent and extensive disruption/disassembly
inhibition of rotenone-induced cell death (in words) ([6]; 500 nM rotenone): significant, dose-dependent inhibition
Max % Inhibition ([6]; inhibition of cell death, 500 nM rotenone): 77%
IC50 ([6]; inhibition of cell death, 500 nM rotenone; read-out: IC50): 35 to 75 µM
Max % Decrease (α-synuclein fibrils [5]; Congo red binding, 2-day incubation): 35%
EC50 (mole ratio) (α-synuclein fibrils [5]; Congo red binding, moles of test compound per mole of α-synuclein, 2 days): 1.1 mole ratio

Oc1ccc(Cc2cc(O)c(O)cc2I)cc1O [SA-93]
Emax (α-synuclein fibrils [1]; [7]): 100%
inhibition at 2 µM ([2]; rotenone 2 μM, compound 2 μM): 45%
IC50 ([6]; Homo sapiens; read-out: IC50): 19.8 µM
Emax [6, 12]: 100%
Emax (α-synuclein; [9]): 91%
Emax (α-synuclein fibrils [3]): 62%

O=C(/C=C/c1ccc(O)c(O)c1)c1ccc(O)c(O)c1 [SA-94]
Emax (α-synuclein fibrils [1]): 100%
inhibition at 0.5 µM [2]: 70%
inhibition at 1 µM [2]: 63%
inhibition at 2 µM [2]: 85%
IC50 ([6]; Homo sapiens): 2.3 µM
inhibition at 3.5 µM [6, 13]: 35%
inhibition at 15 µM [6, 13]: 58%
Emax [6, 10]: 58%
Emax (α-synuclein; 24 h): 95%
Emax (α-synuclein fibrils [3]): 65%

O=C(/C=C/c1cc(O)c(O)cc1Br)c1ccc(O)c(O)c1 [SA-95]
Emax (α-synuclein fibrils [1]; [7]): 100%
inhibition at 0.5 µM [2, 8]: 73%
inhibition at 1 µM ([2]; rotenone 0.5 μM, compound 1 μM): 98%
inhibition at 2 µM ([2]; rotenone 0.5 μM, compound 2 μM): 90%
inhibition at 0.5 µM ([2]; rotenone 2 μM, compound 0.5 μM): 95%
IC50 ([6]; Homo sapiens; read-out: IC50): 3.8 µM
Emax [6, 12]: 63%
Emax (α-synuclein; [9]): 97%
Emax (α-synuclein fibrils [3]): 64%

O=C(/C=C/c1ccc(O)c(O)c1)c1cc(O)c(O)cc1Br [SA-96]
Emax (α-synuclein fibrils [1]): 100%
inhibition at 0.5 µM [2]: 73%
inhibition at 1 µM [2]: 82%
inhibition at 2 µM [2]: 81%
IC50 ([6]; Homo sapiens): 4.3 µM
Emax [6, 10]: 61%
Emax (α-synuclein; 24 h): 100%
Emax (α-synuclein fibrils [3]): 72%

Oc1ccc(Cc2cc(O)c(O)cc2O)cc1O [SA-97]
Emax (α-synuclein fibrils [1]; [7]): 99%
IC50 ([6]; Homo sapiens; read-out: IC50): 39 µM
Emax [6, 12]: 42%
Emax (α-synuclein; [9]): 100%
Emax (α-synuclein fibrils [3]): 40%

CC(=O)N1N=C(c2ccc(O)c(O)c2)CC1c1ccc(O)c(O)c1 (centres unmarked) [SA-98]
Emax (α-synuclein fibrils [1]): 100%
inhibition at 0.5 µM [2]: 74%
inhibition at 1 µM [2]: 76%
IC50 ([6]; Homo sapiens): 48 µM
Emax [6, 10]: 56%
Emax (α-synuclein; 24 h): 100%
Emax (α-synuclein fibrils [3]): 44%

O=[N+]([O-])c1cc(-c2ccc(O)c(O)c2)ccc1-c1ccc(O)c(O)c1 [SA-99]
Emax (α-synuclein fibrils [1]; [7]): 100%
Emax (α-synuclein; [9]): 98%
Emax (α-synuclein fibrils [3]): 54%
